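Interpolation was linear, between the two tested concentrations surrounding the appropriate level; five concentrations were tested over 48 hours in 96-well plates. At the GI50, growth is halved.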 Active and inactive are the calls of the source. Rule as the data show it: active = GI50 up to about 1.1 µM and inactive = higher.
Experiments:
Assay in all cases: NCI anticancer screen, dose series, 48 h
SK-MEL-28 = tested on: SK-MEL-28
A498 = tested on: A498
U-251 = tested on: U-251
UACC-62 = tested on: UACC-62
MDA-N = tested on: MDA-N
SNB-75 = tested on: SNB-75
NCI/ADR-RES = tested on: NCI/ADR-RES
KM12 = tested on: KM12
T47D = tested on: T47D
SW-620 = tested on: SW-620
MDA-MB-231 = tested on: MDA-MB-231
CAKI-1 = tested on: CAKI-1
A549 = tested on: A549
SK-MEL-2 = tested on: SK-MEL-2
NCI-H23 = tested on: NCI-H23
PC-3 = tested on: PC-3
SF-268 = tested on: SF-268
ACHN = tested on: ACHN
SF-295 = tested on: SF-295
MOLT-4 = tested on: MOLT-4
K562 = tested on: K562
NCI-H522 = tested on: NCI-H522
COLO 205 = tested on: COLO 205
SNB-19 = tested on: SNB-19
HOP-62 = tested on: HOP-62
SF-539 = tested on: SF-539
MDA-MB-435 = tested on: MDA-MB-435
IGROV-1 = tested on: IGROV-1
OVCAR-3 = tested on: OVCAR-3
NCI-H226 = tested on: NCI-H226
TK-10 = tested on: TK-10
HCT-15 = tested on: HCT-15
HCC 2998 = tested on: HCC 2998
Malme-3M = tested on: Malme-3M
DU-145 = tested on: DU-145
UACC-257 = tested on: UACC-257
SK-OV-3 = tested on: SK-OV-3
HT-29 = tested on: HT-29
SK-MEL-5 = tested on: SK-MEL-5
EKVX = tested on: EKVX
M14 = tested on: M14
NCI-H460 = tested on: NCI-H460
HCT-116 = tested on: HCT-116
HL-60 = tested on: HL-60
OVCAR-4 = tested on: OVCAR-4
CCRF-CEM = tested on: CCRF-CEM
UO-31 = tested on: UO-31
RPMI-8226 = tested on: RPMI-8226
Hs-578T = tested on: Hs-578T
RXF 393 = tested on: RXF 393
OVCAR-8 = tested on: OVCAR-8
MCF7 = tested on: MCF7
HOP-92 = tested on: HOP-92
786-0 = tested on: 786-0
SN12C = tested on: SN12C
OVCAR-5 = tested on: OVCAR-5
LOX IMVI = tested on: LOX IMVI

SMILES: C=C1C(=O)O[C@@H]2/C=C(C)/C=C\[C@@H]3O[C@@]3(C)C[C@@H](O)C12 (some centres not stated)
- GI50 (SK-MEL-28): 19.9 µM (inactive)
- GI50 (A498): 15.8 µM (inactive)
- GI50 (U-251): 17.8 µM (inactive)
- GI50 (UACC-62): 12.9 µM (inactive)
- GI50 (MDA-N): 13.2 µM (inactive)
- GI50 (SNB-75): 44.3 µM (inactive)
- GI50 (NCI/ADR-RES): 4.51 µM (inactive)
- GI50 (KM12): 15.5 µM (inactive)
- GI50 (T47D): 7.19 µM (inactive)
- GI50 (SW-620): 4.02 µM (inactive)
- GI50 (MDA-MB-231): > 10 µM (inactive)
- GI50 (CAKI-1): 8.91 µM (inactive)
- GI50 (A549): 47.5 µM (inactive)
- GI50 (SK-MEL-2): 30.8 µM (inactive)
- GI50 (NCI-H23): 13.2 µM (inactive)
- GI50 (PC-3): 24.5 µM (inactive)
- GI50 (SF-268): 26.4 µM (inactive)
- GI50 (ACHN): 5.24 µM (inactive)
- GI50 (SF-295): 49.7 µM (inactive)
- GI50 (MOLT-4): 5.14 µM (inactive)
- GI50 (K562): 3.5 µM (inactive)
- GI50 (NCI-H522): 4.23 µM (inactive)
- GI50 (COLO 205): 5.2 µM (inactive)
- GI50 (SNB-19): 17.5 µM (inactive)
- GI50 (HOP-62): 36.1 µM (inactive)
- GI50 (SF-539): 7.73 µM (inactive)
- GI50 (MDA-MB-435): 18 µM (inactive)
- GI50 (IGROV-1): 13 µM (inactive)
- GI50 (OVCAR-3): 14.1 µM (inactive)
- GI50 (NCI-H226): 9.1 µM (inactive)
- GI50 (TK-10): 3.81 µM (inactive)
- GI50 (HCT-15): 6.27 µM
- GI50 (HCC 2998): 18.9 µM (inactive)
- GI50 (Malme-3M): 12.7 µM (inactive)
- GI50 (DU-145): 3.63 µM (inactive)
- GI50 (UACC-257): 11.8 µM (inactive)
- GI50 (SK-OV-3): 54 µM (inactive)
- GI50 (HT-29): 10 µM (inactive)
- GI50 (SK-MEL-5): 14.6 µM (inactive)
- GI50 (EKVX): 3.89 µM (inactive)
- GI50 (M14): 18.3 µM (inactive)
- GI50 (NCI-H460): 28.9 µM (inactive)
- GI50 (HCT-116): 8.13 µM (inactive)
- GI50 (HL-60): 2.54 µM (inactive)
- GI50 (OVCAR-4): 16.3 µM (inactive)
- GI50 (CCRF-CEM): 1.66 µM (inactive)
- GI50 (UO-31): 12.4 µM (inactive)
- GI50 (RPMI-8226): 3.74 µM (inactive)
- GI50 (Hs-578T): 39.2 µM (inactive)
- GI50 (RXF 393): 18.7 µM (inactive)
- GI50 (OVCAR-8): 17.4 µM (inactive)
- GI50 (MCF7): 4.4 µM (inactive)
- GI50 (HOP-92): 5.98 µM (inactive)
- GI50 (786-0): 8.69 µM (inactive)
- GI50 (SN12C): 13.4 µM (inactive)
- GI50 (OVCAR-5): 33.2 µM (inactive)
- GI50 (LOX IMVI): 7.1 µM (inactive)
